Results reported in patent US20100234592A1, “Corrosion Inhibitors Having Increased Biodegradability and Reduced Toxicity” (priority 2006, published 2010).
Like-named read-outs stand apart in the source and are kept apart here.

Legend:
[1] = Shell wheel test (corrosion inhibition); details: carbon steel coupons in saltwater/petroleum mixture, pH 3.5, 70° C., 24 hours; 50 ppm of a 40% solution of the inhibitor; from mass decrease based on a blank value
Protocol: The inventive compounds were tested as corrosion inhibitors in the Shell wheel test. Coupons of carbon steel (DIN 1.1203 with surface area 15 cm^2) were immersed into a saltwater/petroleum mixture (9:1.5% NaCl solution adjusted to pH 3.5 with acetic acid) and exposed to this medium at a peripheral speed of 40 rpm at 70° C. for 24 hours. The dosage of the inhibitor was 50 ppm of a 40% solution of the inhibitor. The protection values were calculated from the mass decrease of the coupons based on a blank value.

[2] = LPR test (test conditions analogous to ASTM D 2776); design: concentration or dose not given beside the values
Protocol: The products were also tested in the LPR test (test conditions analogous to ASTM D 2776).

[3] = tested on: Skeletonema costatum; test: Toxicity (EC50 Skeletonema costatum); assay type: cell-based
[4] = Shaking foam test; assay type: physicochemical; details: 50 ml of a 3% aqueous solution in demineralized water shaken 20 times within 10 seconds; graded weakly foaming, foaming or highly foaming
[5] = Biodegradability (OECD 306)

Compound | Ø % protection [1] [%] | Protection after 10 min [2] [%] | Protection after 30 min [2] [%] | Protection after 60 min [2] [%] | Toxicity EC50 [3] [µg/mL] | Foaming behavior [4] | Biodegradability ([5]; OECD 306) [%] | EC50 [3] [µg/mL] | Biodegradability [5] [%]
N-Cocoyl-DL-methionine N,N-diethyl-(2-hydroxyethyl)-ammonium salt [compound from example 6] | 83 | 92.0 | 96.7 | 99.0 | 15.4 |  |  |  | 
N-Oleyl-DL-methionine 2-(2-hydroxyethoxy)ethylammonium salt [compound from example 7] | 82 | 78.5 | 92.9 | 98.5 |  | weakly foaming |  |  | 
CCCCCCCCCCCC(=O)NCC(=O)[O-].[Na+] [comparative 2, N-lauroylglycine sodium salt, reference compound] | 45 | 15.4 | 35.2 | 42.9 |  | highly foaming | 44.5 | 8.5 | 
CCCCCCCCNC(CCSC)C(=O)O.OCCN(CCO)CCO (racemic) [compound from example 2, N-Octyl-DL-methionine triethanolammonium salt] | 72 | 62.9 | 76.1 | 90.0 |  | weakly foaming |  |  | 
N-Dodecyl-DL-methionine cyclohexylammonium salt [compound from example 3] | 78 | 76.4 | 88.4 | 97.2 | 22.3 | weakly foaming | 84.0 |  | 
N-Cocoyl-DL-methionine morpholinium salt [compound from example 5] | 85 | 90.3 | 94.2 | 98.9 |  |  |  |  | 
N-Dodecyl-DL-methionine dibutylammonium salt [compound from example 4] | 80 | 74.8 | 87.3 | 96.8 |  | weakly foaming |  |  | 
CCCCCCCC/C=C\CCCCCCCCNC(CCSC)C(=O)O.OCCN(CCO)CCO (racemic) [compound from example 8, N-Oleyl-DL-methionine triethanolammonium salt] | 85 | 80.1 | 94.5 | 98.6 | 13.6 | weakly foaming |  |  | 85.4
CCCCCCCCNC(CCSC)C(=O)O.NCCO (racemic) [compound from example 1, N-Octyl-DL-methionine monoethanolammonium salt] | 63 | 60.5 | 75.3 | 88.4 | 44.5 | weakly foaming |  |  | 92.4
CCCCCCCCCCCCCC(=O)N[C@@H](CC(=O)[O-])C(=O)[O-].[Na+].[Na+] [comparative 3, N-myristoyl-L-aspartic acid disodium salt, reference compound] | 38 | 20.0 | 42.6 | 47.1 |  | highly foaming | 50.3 | 9.5 | 
